The numbers were not newly measured in paper PMC5096457 (Cell chemical biology, 2016), which cites them from elsewhere.

In data set [1] the test system is NIH 3T3 Src−/− cells overexpressing Src (Y529F). To be noted: high micromolar concentrations; ref Georghiou et al., 2012.
A further data set concerns c-Kit. Conditions: ref DiNitto et al., 2010.

As for `NC(=O)[C@@H]1CCCNC(=O)[C@H](Cc2ccc([N+](=O)[O-])cc2)NC(=O)[C@H](Cc2ccc(F)cc2)NC(=O)[C@H](CC2CCCCC2)NC(=O)/C=C/C(=O)N1` [MC25a], the global tyrosine phosphorylation entry in data set [1] is “decreased global tyrosine phosphorylation”.

For `CCN(CC)CCNC(=O)c1c(C)[nH]c(/C=C2\C(=O)Nc3ccc(F)cc32)c1C` [sunitinib], the “fold increase in IC50 against activated kinase target” value in the data set with c-Kit is listed as 300 fold.
